# PMC434488 (BMC Biochemistry, 2004)
# Legend:
# [1] = target: S. cerevisiae carbamylphosphate synthetase – aspartate transcarbamylase multifunctional protein (CPSase-ATCase complex) (Saccharomyces cerevisiae, UniProt P07259, E2182K); format: biochemical
# [2] = target: S. cerevisiae carbamylphosphate synthetase – aspartate transcarbamylase multifunctional protein (CPSase-ATCase complex) (Saccharomyces cerevisiae, UniProt P07259); format: biochemical
# Chain of S. cerevisiae carbamylphosphate synthetase – aspartate transcarbamylase multifunctional protein (CPSase-ATCase complex) (Saccharomyces cerevisiae, UniProt P07259) (P07259 2-2214, one chain of several): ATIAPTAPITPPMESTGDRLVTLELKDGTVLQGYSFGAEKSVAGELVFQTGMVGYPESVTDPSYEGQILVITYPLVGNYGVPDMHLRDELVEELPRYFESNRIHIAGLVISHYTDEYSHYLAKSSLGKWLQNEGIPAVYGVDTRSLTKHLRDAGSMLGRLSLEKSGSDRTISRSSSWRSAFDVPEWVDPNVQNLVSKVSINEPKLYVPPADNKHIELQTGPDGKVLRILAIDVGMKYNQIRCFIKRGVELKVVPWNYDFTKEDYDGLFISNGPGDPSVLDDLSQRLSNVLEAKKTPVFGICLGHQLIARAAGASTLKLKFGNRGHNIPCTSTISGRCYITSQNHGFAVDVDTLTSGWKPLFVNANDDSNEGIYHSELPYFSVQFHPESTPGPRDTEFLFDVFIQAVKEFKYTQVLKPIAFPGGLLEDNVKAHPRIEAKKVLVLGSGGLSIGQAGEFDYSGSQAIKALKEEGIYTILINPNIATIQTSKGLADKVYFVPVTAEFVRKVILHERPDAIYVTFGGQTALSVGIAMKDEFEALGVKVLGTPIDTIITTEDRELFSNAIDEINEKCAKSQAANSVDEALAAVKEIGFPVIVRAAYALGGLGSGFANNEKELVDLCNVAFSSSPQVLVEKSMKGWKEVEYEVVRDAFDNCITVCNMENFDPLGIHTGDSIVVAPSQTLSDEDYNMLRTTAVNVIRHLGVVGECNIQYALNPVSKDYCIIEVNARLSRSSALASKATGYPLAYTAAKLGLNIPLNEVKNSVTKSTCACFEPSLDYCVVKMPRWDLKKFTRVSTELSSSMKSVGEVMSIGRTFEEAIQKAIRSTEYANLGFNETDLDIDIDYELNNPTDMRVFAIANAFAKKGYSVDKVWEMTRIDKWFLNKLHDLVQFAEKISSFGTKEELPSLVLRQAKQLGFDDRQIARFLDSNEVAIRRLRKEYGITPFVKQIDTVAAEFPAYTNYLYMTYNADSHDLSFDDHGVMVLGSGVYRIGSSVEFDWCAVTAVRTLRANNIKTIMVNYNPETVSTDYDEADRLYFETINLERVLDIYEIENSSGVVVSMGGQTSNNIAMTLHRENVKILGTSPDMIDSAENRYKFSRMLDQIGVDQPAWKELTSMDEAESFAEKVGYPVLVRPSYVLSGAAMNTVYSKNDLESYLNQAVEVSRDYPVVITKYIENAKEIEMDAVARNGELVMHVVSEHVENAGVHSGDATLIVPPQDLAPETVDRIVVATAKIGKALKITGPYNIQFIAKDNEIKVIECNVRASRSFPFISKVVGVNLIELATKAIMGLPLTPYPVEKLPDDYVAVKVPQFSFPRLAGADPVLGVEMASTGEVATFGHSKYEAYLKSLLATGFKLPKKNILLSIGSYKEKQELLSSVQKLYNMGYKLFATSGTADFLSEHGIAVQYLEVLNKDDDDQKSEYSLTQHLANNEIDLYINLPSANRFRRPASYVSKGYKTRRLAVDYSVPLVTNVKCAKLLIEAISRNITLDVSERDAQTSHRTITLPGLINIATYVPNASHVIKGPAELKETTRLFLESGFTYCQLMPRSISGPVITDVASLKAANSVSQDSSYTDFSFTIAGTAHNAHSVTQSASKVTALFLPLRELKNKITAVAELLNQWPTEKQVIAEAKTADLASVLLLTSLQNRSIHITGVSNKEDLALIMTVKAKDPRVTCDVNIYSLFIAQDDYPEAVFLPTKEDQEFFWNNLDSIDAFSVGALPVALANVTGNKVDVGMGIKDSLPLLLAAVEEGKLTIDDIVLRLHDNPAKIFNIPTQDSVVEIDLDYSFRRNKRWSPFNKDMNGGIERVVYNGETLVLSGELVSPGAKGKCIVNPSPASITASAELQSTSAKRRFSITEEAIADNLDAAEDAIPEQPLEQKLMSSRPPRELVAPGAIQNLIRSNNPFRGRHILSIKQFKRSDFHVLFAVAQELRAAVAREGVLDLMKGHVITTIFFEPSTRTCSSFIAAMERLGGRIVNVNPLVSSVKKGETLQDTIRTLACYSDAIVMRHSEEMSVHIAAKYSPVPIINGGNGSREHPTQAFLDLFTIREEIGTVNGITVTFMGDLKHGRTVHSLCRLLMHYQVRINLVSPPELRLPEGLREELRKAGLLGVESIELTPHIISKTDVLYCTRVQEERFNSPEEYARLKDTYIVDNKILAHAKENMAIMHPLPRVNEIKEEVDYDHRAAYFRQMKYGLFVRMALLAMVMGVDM
# Chain of S. cerevisiae carbamylphosphate synthetase – aspartate transcarbamylase multifunctional protein (CPSase-ATCase complex) (Saccharomyces cerevisiae, UniProt P07259, E2182K) (P07259 2-2214 E2182K, one chain of several): as the sequence (P07259 2-2214, one chain of several) above, with E2181K counted along it
compound,measurement,setting,value
O=c1ccn([C@@H]2O[C@H](COP(=O)(O)OP(=O)(O)OP(=O)(O)O)[C@@H](O)[C@H]2O)c(=O)[nH]1 [UTP],Ki,[1],3 ± 1 mM
same,IC50,[2],800 µM
